From patent US20110190249A1, “THERAPEUTIC METHODS AND USES OF SAPOGENINS AND THEIR DERIVATIVES” (PHYTOPHARM PLC, priority 2002, published 2011)

Assays:
[1] = tested on: β2 adrenoceptor; test: β2 adrenoceptor density in CHO-β2/m3 co-transfected cell line; format: cell-based; details: day 5
From the text: (§1) The effects of epismilagenin cathylate, sarsasapogenin cathylate, episarsasapogenin cathylate, episarsasapogenin succinate, epismilagenin acetate and sarsasapogenin on the expression of muscarinic acetylcholine receptor (m) in CHO cells or β2 and m3 receptors in CHO cells transfected with either a vector for the m receptor or co-transfected with the vector for β2 and m3 receptors were investigated.
(§2) The results are illustrated in Table 1 below and in FIG. 1 of the drawings. Over the culturing period of CHO cells transfected with a vector for the m receptor, treatment with epismilagenin cathylate, sarsasapogenin cathylate, episarsasapogenin cathylate, episarsasapogenin succinate and sarsasapogenin each prevents the decrease in m receptor number.

[2] = tested on: m3 receptor; test: m3 receptor density in CHO-β2/m3 co-transfected cell line; format: cell-based; details: day 5
From the text: as §1, §2

[3] = tested on: rat primary cortical neurones; test: Prevention of glutamate-induced neurodegeneration (LDH release), pre-treatment; format: cell-based; details: 30 nM, given 24 h before glutamate; LDH 24 h after glutamate; control = 100
Protocol: The objective of this study was to examine the effects of sarsasapogenin, episarsasapogenin cathylate, episarsasapogenin, epismilagenin and smilagenin on the survival of rat primary cortical neurones exposed to glutamate, which is known to induce neuro degeneration.
Rat cortical neurones were cultured for 10 days; at day 10 the medium was changed to a serum-free defined medium. On day 12, 24 hours before glutamate exposure, cultures were washed and medium was replaced with fresh medium containing positive control (β-oestradiol), test compounds (sarsasapogenin, episarsasapogenin cathylate, episarsasapogenin, epismilagenin and smilagenin) or vehicle control (DMSO, 0.25%) or diosgenin as negative control.
On day 13, cultures were exposed to glutamate. After the incubation period, the cultures were washed with and placed in fresh medium, supplemented with relevant compounds or vehicle to evaluate their protective effects, 24 h after glutamate exposure.
(§3) Neuronal cell survival was evaluated by measuring lactate dehydrogenase (LDH) activity released in the media 24 h after test compound treatment or glutamate+test compound exposure, using the CytoTox 96 non-radioactive kit and quantitated by measuring wavelength absorbance at 450 nm.

[4] = tested on: BDNF; test: BDNF levels in aged rats; format: in vivo, rat; details: aged rats treated 3 months; aged untreated 1.205±0.219, young 1.647±0.277
Protocol: (§4) Aged Sprague-Dawley rats aged were divided into different groups, one control and groups treated for 2-3 months with either sarsasapogenin, episarsasapogenin cathylate or smilagenin (18 mg kg^−1 day^−1, n=10). A control group (n=14) of untreated young rats was also included in the study. The daily dose of drug was mixed in a minimum amount of food and was administered every morning separately to each rat.

[5] = tested on: rat mesencephalic dopaminergic neurones; test: Treatment of dopaminergic neurones after MPP+ exposure (survival, neurites); format: cell-based; details: MPP+ 2 μM
From the text: Smilagenin and sarsasapogenin also reverse the neurodegeneration caused by exposure to the neurotoxin 1-methyl-4-phenylpyridinium (MPP^+) in rat mesencephalic dopaminergic neurones; a model of Parkinson's disease in vitro.
Glial cell line-derived neurotrophic factor (GDNF) and brain-derived neurotrophic factor (BDNF), molecules that are involved in neuronal growth, and 17β-oestradiol were used as positive controls. Treatment with smilagenin and sarsasapogenin produced a significant increase in the neuronal survival compared to neurones exposed to MPP^+ alone (Table 8).
Exposure to MPP^+ caused not only a significant decrease in dopaminergic number but also in the percentage of neurites.

[6] = tested on: rat primary cortical neurones; test: Neurite outgrowth in rat primary cortical neurones; format: cell-based; details: for Number of neurones displaying neurites, Mean ± s.e.m (%): control 47 ± 2; for Neurite length measured using optical micrometry, Mean ± s.e.m (%): control 100 ± 4
From the text: Neurodegenerative disorders are characterised by a progressive loss of neurones and degradation of neuronal processes (neurites). Agents that induce neurite outgrowth may promote the formation of new connections between neurones and ameliorate the symptoms of neurodegenerative conditions (Katzman et al, Faseb J., 5, 278-286, 1991).

[7] = tested on: rat mesencephalic dopaminergic neurones; test: Pre-treatment of dopaminergic neurones before MPP+ exposure (neuronal survival); format: cell-based; details: pre-treatment 30 nM; MPP+ 2 μM; MPP+ alone 55 ± 3
From the text: Smilagenin and sarsasapogenin prevent the neurodegeneration caused by exposure to the neurotoxin, 1-methyl-4-phenylpyridinium (MPP^+) in rat mesencephalic dopaminergic neurones; a model of Parkinson's disease in vitro.
Glial cell line-derived neurotrophic factor (GDNF) and brain-derived neurotrophic factor (BDNF), molecules that are involved in neuronal growth, were used as positive controls.

[8] = tested on: rat primary cortical neurones; test: Reversal of glutamate-induced neurodegeneration (LDH), treatment after glutamate exposure; format: cell-based; details: LDH after 24 h, control = 100
Protocol: as §3
As above mentioned, exposure of rat primary cortical cultures to glutamate (100 μM; 10 min) caused an increase in lactate dehydrogenase (LDH) activity measured after 24 h, indicating a significant neurodegeneration.

[9] = tested on: dopamine (D) 1 receptor; test: Dopamine D1 receptor density in aged rats; format: in vivo, rat; details: aged rats treated 3 months; aged untreated 129.2±36.8, young 157.5±33.2
Protocol: as §4
(§5) By contrast, smilagenin and sarsasapogenin treatment in aged rats for 3 months restored the D1 and D2 receptor density (smilagenin 177±10.9; 217±45.7 fmol/mg protein; sarsasapogenin 172.0±44.0; 206.4±60.5 respectively).

[10] = tested on: muscarinic acetylcholine receptor; test: Brain muscarinic acetylcholine receptor density in aged rats (dual-site competitive ligand binding); format: in vivo, rat; details: 18 mg kg−1 day−1 oral, 2-3 months
Protocol: as §4
Muscarinic acetylcholine receptor density in the brain was measured. Tissue was prepared as follows: brains were removed quickly after decapitation, frozen in dry ice, and transferred to a freezer. The brains were homogenised and the pellet was finally suspended in buffer.
The dual-site competitive ligand binding assay was used to measure muscarinic acetylcholine receptor density.

[11] = tested on: progressive motor neuropathy (pmn) mice; test: Survival and behaviour of pmn mice (Charcot-Marie-Tooth model); format: in vivo; details: pmn mouse
From the text: Amyotrophic lateral sclerosis (ALS) is a progressive fatal neurodegenerative disorder that causes motor neurone degeneration, […], paralysis and death. The cause of this disease is heterogeneous: mutations in the Cu/Zn superoxide dismutase (SOD-1) gene is responsible for some forms of human ALS. Animal models of this disease include the SOD-1 transgenic mice over-expressing SOD-1 gene and the progressive motor neuropathy (pmn, a model of Charcot-Marie-Tooth) mice.

[12] = tested on: aged Sprague-Dawley rats; test: Y-maze learning and memory test in aged rats; format: in vivo, rat; details: 18 mg kg−1 day−1 oral in food, 3 months
Protocol: as §4
A Y-maze apparatus was used for the learning and memory test. On the floor of each arm of the Y-maze is an array of copper rods to which electric current is applied whenever needed, with adjustable voltage. Each arm is 45 cm long and has a 15 W lamp at the end, which is turned on when needed. After 3 months drug administration, each rat was trained for 7 consecutive days, as follows. For each training session, the rat was put into one arm of the Y-maze, after two minutes rest, an electrical current was applied to the copper rods and the lamp of the clockwise arm was illuminated to indicate the non-stimulation area. If the rat went into that arm, one correct response was recorded, otherwise, one wrong response was recorded: This stimulation-response test was repeated 20 times each day, with a pause of 5 sec between each two consecutive tests. The number of correct responses following the twenty tests on the seventh day was used to express learning ability, (the higher the number the better the learning ability). The rats were then left resting for 30 days and the procedure was repeated once more. The number of correct responses of the 20 tests after the 30 day rest period was used to represent the memory ability

[13] = tested on: rat primary spinal motor neurones; test: Glutamate-induced neurodegeneration in spinal motor neurones (LDH); format: cell-based; details: control 100 ± 1
Protocol: The objective of this study was to examine the effects of sarsasapogenin and smilagenin on the survival of rat primary spinal motor neurones exposed to glutamate, which is known to induce neurodegeneration in this model of motor neurodegeneration.
Rat motor neurones were prepared according to the method described by (Martinou et al, Neuron, 8, 737-744, 1992). On day 10, medium was removed and the cultures were exposed to glutamate (4 microM) for 10 min at 37° C. in defined medium. After the glutamate exposure, cultures were washed with Dulbecco modified Eagle medium at 37° C. then placed in fresh culture medium containing test compounds. After 48 h, the extent of spinal motor neurone degeneration was determined by measuring the amount of lactate dehydrogenase (LDH) released into the culture medium as above.

[14] = tested on: dopamine (D) 2 receptor; test: Dopamine D2 receptor density in aged rats; format: in vivo, rat; details: aged rats treated 3 months; aged untreated 153.8±40.5, young 200.6±50.9
Protocol: as §4, §5

CC(=O)OC1CCC2(C)C(CCC3C2CCC2(C)C3CC3OC4(CCC(C)CO4)C(C)C32)C1 (stereo not drawn) [epismilagenin acetate]
decrease in β2 adrenoceptors (density) [1]: significantly prevented the decrease
density of m3 receptors [2]: did not significantly alter

C[C@H]1CC[C@@]2(OC1)O[C@H]1C[C@H]3[C@@H]4CC[C@@H]5C[C@@H](O)CC[C@]5(C)[C@H]4CC[C@]3(C)[C@H]1[C@@H]2C [sarsasapogenin]
Prevention of glutamate-induced neurodegeneration, Mean ± s.e.m (%) [3]: 79 ± 3%
BDNF levels [4]: 1.410±0.232 ng/g tissue
Percentage of neurites in dopaminergic neurones after MPP+ exposure, Mean ± s.e.m (%) ([5]; 0.03 nM, control 41 ± 4, MPP+ alone 27 ± 5): 43 ± 4%
Dopaminergic neurones after MPP+ exposure (survival), Mean ± s.e.m (%) ([5]; treatment 0.03 nM, MPP+ alone 76 ± 4): 112 ± 6%
Number of neurones displaying neurites, Mean ± s.e.m (%) ([6]; 0.3 pM): 55 ± 2%
Neurite length measured using optical micrometry, Mean ± s.e.m (%) ([6]; 0.3 pM): 177 ± 5%
Number of neurones displaying neurites, Mean ± s.e.m (%) ([6]; 3 pM): 61 ± 1%
Neurite length measured using optical micrometry, Mean ± s.e.m (%) ([6]; 3 pM): 197 ± 5%
Number of neurones displaying neurites, Mean ± s.e.m (%) ([6]; 30 pM): 62 ± 2%
Neurite length measured using optical micrometry, Mean ± s.e.m (%) ([6]; 30 pM): 211 ± 6%
Dopaminergic neurones after MPP+ exposure (survival), Mean ± s.e.m (%) [7]: 89 ± 3%
Cortical neurones previously exposed to glutamate, Mean ± s.e.m (%) ([8]; 3 nM after glutamate 100 μM 10 min): 101 ± 3%
Cortical neurones previously exposed to glutamate, Mean ± s.e.m (%) ([8]; 30 nM after glutamate 100 μM 10 min): 112 ± 1%
D1 receptor density [9]: 172.0±44.0 fmol/mg protein
Muscarinic acetylcholine receptor density in brain [10]: significantly restored
Behavioural deficits ([11]; oral administration): improve the behavioural deficits
Lifespan (survival) ([11]; oral administration (FIG. 6)): increase the lifespan
Learning and memory ability (Y-maze) [12]: restored the learning and memory ability
Glutamate-induced neurodegeneration in spinal motor neurones, Mean ± s.e.m (%) ([13]; 0.03 nM for 48 h after glutamate 4 microM 10 min): 123 ± 2%
Glutamate-induced neurodegeneration in spinal motor neurones, Mean ± s.e.m (%) ([13]; 3 nM for 48 h after glutamate 4 microM 10 min): 137 ± 1%
Glutamate-induced neurodegeneration in spinal motor neurones, Mean ± s.e.m (%) ([13]; 300 nM for 48 h after glutamate 4 microM 10 min): 136 ± 6%
D2 receptor density [14]: 206.4±60.5 fmol/mg protein
